Reference: US20260327263A1, “Anti-Bacterial Peptides” (priority 2023, published 2026)
Several values for one entry are separate records, joined by “and”; a condition that tells them apart may be missing. Equal values may be shown once. Entries after “also recorded” stand apart in the source; their conditions may differ. Where no end group is shown, it is not given here.

Experiments:
Assay type in all cases: cell-based
[1] = test system: Staphylococcus aureus (SA); assay: Broth microdilution anti-bacterial assay (CLSI), Staphylococcus aureus; details: SA; for MIC: overnight, 37° C., ≥99% inhibition; for MBC: ≥99% killing
[2] = test system: Pseudomonas aeruginosa (PA); assay: Time-kill assay, Pseudomonas aeruginosa; details: for time to kill PA (in words): 1X MBC; for Time kill PA, >99% killing: at 1X MBC, * indicates killing within seconds
Protocol: (§1) The bactericidal abilities of the variant peptides are not only effective, but also fast-acting. […] The killing kinetics are detailed in Table 11 below.
(§2) Pseudomonas aeruginosa (PA) and Staphylococcus aureus (SA) strains were grown as per CLSI guidelines. AMPs were added to the bacterial cultures at their 1X MBC concentrations. Upon treatment, the bacterial cultures were enumerated for viable counts immediately within 1 min, 5 min, 15 min, 30 min and 60 min post-treatments.

[3] = test system: Staphylococcus aureus (SA); assay: Time-kill assay, Staphylococcus aureus; details: for time to kill SA (in words): 1X MBC; for Time kill SA, >99% killing: at 1X MBC, * indicates killing within seconds
Protocol: as §1, §2

[4] = test system: Pseudomonas aeruginosa (PA); assay: Antimicrobial resistance evolution assay, PA; details: for development of antimicrobial resistance, PA: serial passaging, 28 days, resistance = >4-fold MIC change
Outline: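 PA and SA serially passaged daily up to 4 weeks at 37° C with agitation, in sub-inhibitory concentrations of peptide or antibiotic, cells diluted to OD600 ~0.2 each 24 h.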

human keratinocytes = assay: 2D scratch assay, keratinocyte migration
Protocol: Wound healing is directly associated with the migration speed of keratinocytes. The migration speed of human keratinocytes in presence of E1AM2, V8L (SEQ ID NO: 19), and Q19L variants is tested in comparison with pexiganan (SEQ ID NO: 54). Migration speed of human keratinocytes assessed in a 2D scratch assay at D 0 and D 2 timepoints. Decrease in wound area over time was measured by applying an ImageJ plugin ‘Wound Healing Size Tool’ on bright-field images. The change in wound area over the course of 48 hours was used as a measure of the migration speed of keratinocytes. Each value is the mean±SD (n=3). The p-value was calculated using ANOVA for multiple comparisons (Dunnett's multiple comparisons test). **** p<0.0001. *** p<0.001. ** p <0.01. * p<0.05. […] Both peptides healed wound faster within their respective MIC and MBC concentrations. […] SEQ ID NO: 27=Q19L; SEQ ID NO: 2=E1AM2; SEQ ID NO: 19=V8L.
Wound closure was compared with the untreated samples (circle, red highlight). For improved clarity, error bars have been omitted from this representation. […] Each value is the mean±SD (n=3). Statistical significance was assessed using ANOVA for multiple comparisons (Dunnett's multiple comparisons test). **** p<0.0001, *** p<0.001, ** p<0.01, *p<0.05, ns denotes nonsignificance, p >0.05.
Wound areas of the human keratinocyte culture were assessed in presence of peptides in a 2D scratch assay at the 0 hour, and 48-hour time points by applying an ImageJ plugin, ‘Wound Healing Size Tool’ on brightfield images. Quantification of wound width was calculated by obtaining the averaged Euclidean distance between each paired pixel at the lateral wound edges. The change in wound area over the course of 48 hours was used as a measure of the migration speed of keratinocytes.
Using the inverted BioTek Lionheart LX Automated Microscope, brightfield images were obtained at 4× magnification to observe the wound area at timepoints 0 (before treatment) and 48 hours-post treatment. Microscopy settings were maintained as focus offset (781.3 μm), illumination (2), integration Time (21) with no gain. To cover the entire well, montage images of four rows by three columns were stitched together by enabling the “image stitching” function and images were saved in tiff-format.

Substance | MIC [1] | MBC [1] | time to kill PA (in words) [2] | Time kill PA, >99% killing [2] | time to kill SA (in words) [3] | Time kill SA, >99% killing [3] | development of antimicrobial resistance, PA [4] | migration speed of keratinocytes (human keratinocytes; 48 h, E1AM2 3.125-12.5 μM, Q19L 3.125-6.25 μM) | MIC ([1]; listed as VBLQ19L) | MBC ([1]; listed as VBLQ19L) | AMR prevention / resistance induction ([4]; Table 15: in PA and SA, bacteria not named) | wound closure, 2D scratch (human keratinocytes; up to 16X MBC)
E1AM2: untagged (E1AM2), KKLLKKWVKLSKKALKLAQSL | 6.25 µM and 6.28 µM | 12.5 µM | within minutes | 1 min | within minutes | 1 min | prevented resistance acquisition | increase keratinocyte migration; also recorded: increased the migration speed of keratinocytes significantly |  |  |  | 
KKLLKKWLKLSKKALKLALSL-NH2 [V8LQ19L] | 1.56 µM | 1.56 µM | within seconds | 1* min | within seconds | 1* min | effective in preventing the acquisition of AMR |  | 1.56 µM | 1.56 µM | Prevent AMR | did not impair wound healing
